Earlier results on 1 substance are cited in patent US4123523A, “Analgesic and sedative polypeptides” (Imperial Chemical Industries Limited, priority 1976, dated 1978).

The data set has as its system cat. Conditions: injected directly into the third ventricle of the cat.

For “β-endorphin: residues 61-91 of the naturally-occuring lipolytic polypeptide hormone lipotropin (YGGFMTSEKSQTPLVTLFKNAIIKNAYKKGE; Beta-endorphin; UniProt P01189 237-267, looked up)”, the analgesic properties entry is “possesses analgesic properties”.
